Series [1] concerns the target T1, endogenous CB2R in human Jurkat cells (Homo sapiens, UniProt P34972).
T1 construct: endogenous CB2R in human Jurkat cells; endogenous in cells; host or cells: Jurkat cells
The series can be described thus: Competition binding, [^3H]-RO6753361, Jurkat cell membranes. The procedure: Competition and saturation binding assays were performed using the radiolabeled CB1R/CB2R agonist [^3H]-CP55940 (PerkinElmer, Waltham, MA, United States) in recombinant cell systems, and the newly developed CB2R-selective agonist [^3H]-RO6753361 ([Chicca et al., 2024]) in cells expressing endogenous CB1R/CB2R. Competition assays were conducted by incubating 5, 40, or 40 µg of membrane protein from CHO cells, Jurkat cells or spleen cells, respectively, with 1.5 nM [^3H]-CP55940 or 1.5 nM [^3H]-RO6753361 in the presence or absence of increasing concentrations of ligand (RG7774 or control) for 2 h at 30°C in a final volume of 0.2 mL of assay buffer (50 mmol/L Tris-HCl, 5 mmol/L MgCl2, 2.5 mmol/L EDTA, and 0.5% fatty acid-free BSA [pH 7.4] and 1% DMSO), with gentle shaking. Saturation binding assays were conducted by incubating 1–3 μg, 40 μg, or 30–40 μg of membrane protein from CHO cells, Jurkat cells, or spleen tissue, respectively, with 12 concentrations in the range of 80–0.039 nM [^3H]-CP55940 or [^3H]-RO6753361 for 2 h at 30°C in a final volume of 0.2 mL/well of assay buffer without DMSO. […] IC50 values and Hill slopes were determined with a 4-parameter logistic model using ActivityBase (ID Business Solution, Guilford, United Kingdom) and pKi values were determined using the Cheng-Prusoff equation ([Cheng and Prusoff, 1973]).

A short description of series [2]: Parallel artificial membrane permeability assay (PAMPA). The class given is physicochemical. The procedure: A 96-well microtiter plate was filled with aqueous buffer (typically 0.05 M Tris, pH 7.4, or 0.05 M phosphate, pH 6.5) and covered with a filter plate in a sandwich construction. The hydrophobic filter material (Durapore/Millipore; pore size 0.22–0.45 μm) covering the first 48 wells (sample) was impregnated with 1%–20% lecithin dissolved in dodecane, hexadecane, and 1,9-decadiene. The filter cover for the remaining 48 wells (reference) was wetted with 4–5 μL of a 50% (v/v) methanol/buffer solution. The transfer of RG7774 and reference substances from the donor compartment, through the lipid-infused artificial membrane, into the acceptor compartment was initiated by transferring 100–200 μL of a 250 or 500 μM stock solution to filter plates covering the sample and reference wells, respectively. The maximum DMSO content of the stock solutions was 5%. The permeation coefficient (Peff) was determined as previously described by Kansy et al. 1998 [3].
(PAMPA measures passive passage across an artificial lipid membrane.)

This note sets out measurements from article PMC11272598, “RG7774 (Vicasinabin), an orally bioavailable cannabinoid receptor 2 (CB2R) agonist, decreases retinal vascular permeability, leukocyte adhesion, and ocular inflammation in animal models” (Frontiers in Pharmacology, 2024).

T1 sequence (P34972 whole entry): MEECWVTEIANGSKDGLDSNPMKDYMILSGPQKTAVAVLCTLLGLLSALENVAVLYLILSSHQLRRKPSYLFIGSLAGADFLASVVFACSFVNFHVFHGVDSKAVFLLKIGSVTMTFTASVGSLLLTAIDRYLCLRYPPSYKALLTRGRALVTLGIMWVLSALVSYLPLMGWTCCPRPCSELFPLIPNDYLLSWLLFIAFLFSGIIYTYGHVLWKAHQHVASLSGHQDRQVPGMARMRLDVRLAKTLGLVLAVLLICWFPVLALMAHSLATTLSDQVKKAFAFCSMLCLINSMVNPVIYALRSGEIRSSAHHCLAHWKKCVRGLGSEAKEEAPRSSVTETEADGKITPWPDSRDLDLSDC

What is called Ki is the equilibrium dissociation constant of an inhibitor or competing ligand from its target. Low readings indicate tighter binding, high ones weaker binding. `Cn1nnnc1Cn1nnc2c(N3CC[C@H](O)C3)nc(C(C)(C)C)nc21` [RG7774, (S)-1-(5-tert-butyl-3-[(1-methyl-1H-tetrazol-5-yl)methyl]-3H-[1,2,3]triazolo[4,5-d]pyrimidin-7-yl)pyrrolidin-3-ol]: the Ki in series [1] amounted to 31.9 ± 13.4 nM. For the same molecule, in series [2], the “PAMPA P eff” value is listed as 9.7 10^−6 cm s^−1, the PAMPA acceptor compartment is recorded as 23%, the PAMPA donor compartment is 59% and the PAMPA membrane is reported as 18%.
